What was measured:
Format in all cases: binding
[1] = target: T1, SMARCA2A (Homo sapiens, UniProt P51531); test: Bromodomain thermal shift screening (DSF); details: Group VIII
T1 construct: Bromodomain thermal shift screening data for 16k
Description: (§1) BRD4 thermal shift was measured in a differential scanning fluorimetry (DSF) assay. The assay was performed on a Stratagene Mx3005P system quantitative polymerase chain reaction (qPCR). The assay was performed in 96-well plates with 20 μL of protein at 2 μM in DSF-assay buffer (10 mM HEPES pH 7.5, 500 mM NaCl) to which 4 μL of Sypro orange dye and 0.4 μL of 10 μM compound in DMSO was added. The plate was sealed and centrifuged (1 min, 1000 rpm), and the qPCR machine was used to detect SYPRO fluorescence while increasing the temperature from 25 to 95 °C in 71 cycles. The sigmoidal part of the fluorescence signal was fitted using the Boltzmann equation, the points of change were defined, and the thermal shift was calculated by subtracting the protein/DMSO Tm shift from the protein/compound Tm shift.

[2] = target: T2, BRDT(2) (Homo sapiens, UniProt Q58F21); test: Bromodomain thermal shift screening (DSF); details: Group II (BET)
T2 construct: Bromodomain thermal shift screening data for 16k
Description: as §1

[3] = target: T3, BRD4(2) (Homo sapiens, UniProt O60885); test: Bromodomain thermal shift screening (DSF); details: Group II (BET)
T3 construct: BRD4(2)
Description: as §1

[4] = target: T4, BRPF1A (Homo sapiens, UniProt P55201); test: Bromodomain thermal shift screening (DSF); details: Group IV
T4 construct: Bromodomain thermal shift screening data for 16k
Description: as §1

[5] = target: T5, PB1A(5) (Homo sapiens, UniProt Q86U86); test: Bromodomain thermal shift screening (DSF); details: Group VIII
T5 construct: Bromodomain thermal shift screening data for 16k
Description: as §1

[6] = target: T6, SMARCA2B (Homo sapiens, UniProt P51531); test: Bromodomain thermal shift screening (DSF); details: Group VIII
T6 construct: Bromodomain thermal shift screening data for 16k
T6 sequence (P51531 1373-1493 isoform P51531-2 limits assumed): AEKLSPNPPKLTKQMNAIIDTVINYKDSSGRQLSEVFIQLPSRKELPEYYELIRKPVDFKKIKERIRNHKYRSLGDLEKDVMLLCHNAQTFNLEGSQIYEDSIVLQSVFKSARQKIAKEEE
Description: as §1

[7] = target: T7, BRD2(2) (Homo sapiens, UniProt P25440); test: Bromodomain thermal shift screening (DSF); details: Group II (BET)
T7 construct: BRD2(2)
T7 sequence (P25440 344-453 limits assumed, species assumed): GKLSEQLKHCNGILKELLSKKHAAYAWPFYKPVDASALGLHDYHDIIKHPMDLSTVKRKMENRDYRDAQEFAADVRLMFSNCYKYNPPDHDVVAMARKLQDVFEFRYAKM
Description: as §1

[8] = target: T8, PB1A(1) (Homo sapiens, UniProt Q86U86); test: Bromodomain thermal shift screening (DSF); details: Group VIII
T8 construct: Bromodomain thermal shift screening data for 16k
T8 sequence (Q86U86 41-151 limits assumed): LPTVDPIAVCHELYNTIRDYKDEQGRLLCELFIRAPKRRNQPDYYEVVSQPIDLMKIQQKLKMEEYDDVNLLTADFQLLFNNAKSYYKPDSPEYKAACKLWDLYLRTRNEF
Description: as §1

[9] = target: T9, PCAF (Homo sapiens, UniProt Q92831); test: Bromodomain thermal shift screening (DSF); details: Group I
T9 construct: Bromodomain thermal shift screening data for 16k
Description: as §1

[10] = tested on: TRIM33B; test: Bromodomain thermal shift screening (DSF); details: Group V
Description: as §1

[11] = target: T10, EP300 (Homo sapiens, UniProt Q09472); test: Bromodomain thermal shift screening (DSF); details: Group III
T10 construct: Bromodomain thermal shift screening data for 16k
Description: as §1

[12] = target: T11, PB1A(3) (Homo sapiens, UniProt Q86U86); test: Bromodomain thermal shift screening (DSF); details: Group VIII
T11 construct: Bromodomain thermal shift screening data for 16k
Description: as §1

[13] = target: T12, BRD2(1) (Homo sapiens, UniProt P25440); test: Bromodomain thermal shift screening (DSF); details: Group II (BET)
T12 construct: BRD2(1)
T12 sequence (P25440 74-180 limits assumed, species assumed): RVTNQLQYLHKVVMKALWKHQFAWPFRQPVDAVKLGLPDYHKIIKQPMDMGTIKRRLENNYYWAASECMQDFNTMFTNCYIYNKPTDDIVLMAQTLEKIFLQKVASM
Description: as §1

[14] = target: T13, TAF1A(1) (Homo sapiens, UniProt P21675); test: Bromodomain thermal shift screening (DSF); details: Group VII
T13 construct: Bromodomain thermal shift screening data for 16k
T13 sequence (P21675 1397-1505 limits assumed): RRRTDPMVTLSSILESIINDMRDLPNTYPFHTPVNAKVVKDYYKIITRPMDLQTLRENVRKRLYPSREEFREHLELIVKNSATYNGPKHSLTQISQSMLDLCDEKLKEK
Description: as §1

[15] = tested on: WDR9; test: Bromodomain thermal shift screening (DSF); details: Group VII
Description: as §1

[16] = target: T14, BRD3(1) (Homo sapiens, UniProt Q15059); test: Bromodomain thermal shift screening (DSF); details: Group II (BET)
T14 construct: BRD3(1)
T14 sequence (Q15059 34-140 limits assumed, species assumed): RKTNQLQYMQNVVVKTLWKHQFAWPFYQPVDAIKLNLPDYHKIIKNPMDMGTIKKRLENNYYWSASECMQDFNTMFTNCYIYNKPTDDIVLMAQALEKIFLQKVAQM
Description: as §1

[17] = target: T15, TAF1LA(1) (Homo sapiens, UniProt Q8IZX4); test: Bromodomain thermal shift screening (DSF); details: Group VII
T15 construct: Bromodomain thermal shift screening data for 16k
T15 sequence (Q8IZX4 1395-1503 limits assumed): as the sequence (P21675 1397-1505 limits assumed) above, with Y28H, R62C counted along it
Description: as §1

[18] = target: T16, SP100 (Homo sapiens, UniProt P23497); test: Bromodomain thermal shift screening (DSF); details: Group V
T16 construct: Bromodomain thermal shift screening data for 16k
Description: as §1

[19] = target: T17, PB1A(6) (Homo sapiens, UniProt Q86U86); test: Bromodomain thermal shift screening (DSF); details: Group VIII
T17 construct: Bromodomain thermal shift screening data for 16k
T17 sequence (Q86U86 769-879 limits assumed): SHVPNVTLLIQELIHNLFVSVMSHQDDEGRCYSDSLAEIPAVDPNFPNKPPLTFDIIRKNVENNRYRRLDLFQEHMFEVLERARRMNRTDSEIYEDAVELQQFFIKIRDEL
Description: as §1

[20] = target: T18, BRD1 (Homo sapiens, UniProt O95696); test: Bromodomain thermal shift screening (DSF); details: Group IV
T18 construct: Bromodomain thermal shift screening data for 16k
T18 sequence (O95696 562-666 limits assumed): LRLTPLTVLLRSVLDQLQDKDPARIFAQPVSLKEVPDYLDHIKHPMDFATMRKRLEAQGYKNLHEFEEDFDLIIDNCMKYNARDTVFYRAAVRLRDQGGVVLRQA
Description: as §1

[21] = target: T19, PB1A(4) (Homo sapiens, UniProt Q86U86); test: Bromodomain thermal shift screening (DSF); details: Group VIII
T19 construct: Bromodomain thermal shift screening data for 16k
Description: as §1

[22] = target: T20, BRD3(2) (Homo sapiens, UniProt Q15059); test: Bromodomain thermal shift screening (DSF); details: Group II (BET)
T20 construct: BRD3(2)
Description: as §1

[23] = target: T21, TAF1LA(2) (Homo sapiens, UniProt Q8IZX4); test: Bromodomain thermal shift screening (DSF); details: Group VII
T21 construct: Bromodomain thermal shift screening data for 16k
T21 sequence (Q8IZX4 1517-1626 limits assumed): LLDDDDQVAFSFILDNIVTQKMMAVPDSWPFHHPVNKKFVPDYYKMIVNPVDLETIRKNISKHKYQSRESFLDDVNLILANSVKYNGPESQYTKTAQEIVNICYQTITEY
Description: as §1

[24] = target: T22, BRDT(1) (Homo sapiens, UniProt Q58F21); test: Bromodomain thermal shift screening (DSF); details: Group II (BET)
T22 construct: Bromodomain thermal shift screening data for 16k
Description: as §1

[25] = target: T23, TAF1A(2) (Homo sapiens, UniProt P21675); test: Bromodomain thermal shift screening (DSF); details: Group VII
T23 construct: Bromodomain thermal shift screening data for 16k
T23 sequence (P21675 1519-1628 limits assumed): as the sequence (Q8IZX4 1517-1626 limits assumed) above, with M46V, V51M, I102V, I107L counted along it
Description: as §1

[26] = target: T24, SMARCA4A (Homo sapiens, UniProt P51532); test: Bromodomain thermal shift screening (DSF); details: Group VIII
T24 construct: Bromodomain thermal shift screening data for 16k
T24 sequence (P51532 1453-1564 limits assumed): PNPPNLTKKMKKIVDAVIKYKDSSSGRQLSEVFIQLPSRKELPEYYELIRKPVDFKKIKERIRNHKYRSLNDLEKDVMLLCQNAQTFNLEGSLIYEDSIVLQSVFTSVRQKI
Description: as §1

[27] = target: T25, ABL1(T315I)-phosphorylated (Homo sapiens, UniProt P00519, T315I); test: KINOMEscan scanEDGE; details: read-out: % Control (1µM)
T25 construct: purchased DiscoveRx KINOMEscan (scanEDGE); Thermo Fisher SelectScreen (Z'-LYTE) for PLK-1
Description: (§2) Compound X was assayed at 1 μM in the DiscoveRx KINOMEscan (scanEDGE) assay platform. The results for single-concentration binding interactions are reported as “%Ctrl” (DMSO = 100%Ctrl), where lower numbers indicate stronger hits.

[28] = target: T26, PIK3CA (Homo sapiens, UniProt P42336); test: KINOMEscan scanEDGE; details: read-out: % Control (1µM)
T26 construct: purchased DiscoveRx KINOMEscan (scanEDGE); Thermo Fisher SelectScreen (Z'-LYTE) for PLK-1
Description: as §2

[29] = target: T27, ERBB2 (Homo sapiens, UniProt P04626); test: KINOMEscan scanEDGE; details: read-out: % Control (1µM)
T27 construct: purchased DiscoveRx KINOMEscan (scanEDGE); Thermo Fisher SelectScreen (Z'-LYTE) for PLK-1
Description: as §2

[30] = target: T28, BTK (Homo sapiens, UniProt Q06187); test: KINOMEscan scanEDGE; details: read-out: % Control (1µM)
T28 construct: purchased DiscoveRx KINOMEscan (scanEDGE); Thermo Fisher SelectScreen (Z'-LYTE) for PLK-1
T28 sequence (Q06187 whole entry): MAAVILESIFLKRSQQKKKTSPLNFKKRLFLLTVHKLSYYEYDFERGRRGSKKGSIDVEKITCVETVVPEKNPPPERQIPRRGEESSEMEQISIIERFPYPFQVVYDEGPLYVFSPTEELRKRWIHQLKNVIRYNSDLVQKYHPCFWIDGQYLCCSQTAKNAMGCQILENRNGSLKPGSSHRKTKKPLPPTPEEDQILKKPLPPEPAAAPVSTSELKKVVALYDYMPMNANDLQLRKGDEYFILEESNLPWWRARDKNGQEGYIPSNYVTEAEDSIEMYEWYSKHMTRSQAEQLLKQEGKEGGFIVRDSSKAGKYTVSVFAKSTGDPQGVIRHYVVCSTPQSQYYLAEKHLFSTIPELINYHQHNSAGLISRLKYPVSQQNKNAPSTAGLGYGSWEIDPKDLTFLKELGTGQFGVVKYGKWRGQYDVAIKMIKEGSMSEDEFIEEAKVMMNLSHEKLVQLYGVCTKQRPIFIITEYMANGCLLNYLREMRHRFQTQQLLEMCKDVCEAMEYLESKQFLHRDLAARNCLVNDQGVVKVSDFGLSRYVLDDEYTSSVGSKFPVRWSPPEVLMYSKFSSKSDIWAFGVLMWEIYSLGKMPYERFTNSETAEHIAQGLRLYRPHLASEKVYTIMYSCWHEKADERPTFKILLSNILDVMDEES
Description: as §2

[31] = target: T29, AKT1 (Homo sapiens, UniProt P31749); test: KINOMEscan scanEDGE; details: read-out: % Control (1µM)
T29 construct: purchased DiscoveRx KINOMEscan (scanEDGE); Thermo Fisher SelectScreen (Z'-LYTE) for PLK-1
Description: as §2

[32] = target: T30, IKK-beta (Homo sapiens, UniProt O14920); test: KINOMEscan scanEDGE; details: read-out: % Control (1µM)
T30 construct: purchased DiscoveRx KINOMEscan (scanEDGE); Thermo Fisher SelectScreen (Z'-LYTE) for PLK-1
T30 sequence (O14920 whole entry): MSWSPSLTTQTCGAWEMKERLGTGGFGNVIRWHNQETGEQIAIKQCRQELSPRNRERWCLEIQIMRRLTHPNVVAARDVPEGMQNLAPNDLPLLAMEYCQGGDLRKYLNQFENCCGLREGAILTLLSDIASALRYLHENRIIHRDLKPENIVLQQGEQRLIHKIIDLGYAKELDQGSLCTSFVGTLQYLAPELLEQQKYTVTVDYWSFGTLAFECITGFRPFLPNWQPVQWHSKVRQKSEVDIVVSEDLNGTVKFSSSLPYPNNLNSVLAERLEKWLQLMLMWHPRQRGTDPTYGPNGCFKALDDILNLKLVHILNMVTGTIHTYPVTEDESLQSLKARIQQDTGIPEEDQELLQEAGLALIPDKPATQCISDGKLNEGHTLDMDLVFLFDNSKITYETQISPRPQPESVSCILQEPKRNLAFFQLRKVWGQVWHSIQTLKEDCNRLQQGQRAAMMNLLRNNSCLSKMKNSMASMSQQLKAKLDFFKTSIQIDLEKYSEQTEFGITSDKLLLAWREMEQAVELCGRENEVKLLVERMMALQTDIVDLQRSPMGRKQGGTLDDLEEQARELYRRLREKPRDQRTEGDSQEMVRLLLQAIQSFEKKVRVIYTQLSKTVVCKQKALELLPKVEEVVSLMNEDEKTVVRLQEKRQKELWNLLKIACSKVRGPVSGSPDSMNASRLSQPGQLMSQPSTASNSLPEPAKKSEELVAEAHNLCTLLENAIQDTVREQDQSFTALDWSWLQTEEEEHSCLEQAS
Description: as §2

[33] = target: T31, BMPR2 (Homo sapiens, UniProt Q13873); test: KINOMEscan scanEDGE; details: read-out: % Control (1µM)
T31 construct: purchased DiscoveRx KINOMEscan (scanEDGE); Thermo Fisher SelectScreen (Z'-LYTE) for PLK-1
T31 sequence (Q13873 27-1038): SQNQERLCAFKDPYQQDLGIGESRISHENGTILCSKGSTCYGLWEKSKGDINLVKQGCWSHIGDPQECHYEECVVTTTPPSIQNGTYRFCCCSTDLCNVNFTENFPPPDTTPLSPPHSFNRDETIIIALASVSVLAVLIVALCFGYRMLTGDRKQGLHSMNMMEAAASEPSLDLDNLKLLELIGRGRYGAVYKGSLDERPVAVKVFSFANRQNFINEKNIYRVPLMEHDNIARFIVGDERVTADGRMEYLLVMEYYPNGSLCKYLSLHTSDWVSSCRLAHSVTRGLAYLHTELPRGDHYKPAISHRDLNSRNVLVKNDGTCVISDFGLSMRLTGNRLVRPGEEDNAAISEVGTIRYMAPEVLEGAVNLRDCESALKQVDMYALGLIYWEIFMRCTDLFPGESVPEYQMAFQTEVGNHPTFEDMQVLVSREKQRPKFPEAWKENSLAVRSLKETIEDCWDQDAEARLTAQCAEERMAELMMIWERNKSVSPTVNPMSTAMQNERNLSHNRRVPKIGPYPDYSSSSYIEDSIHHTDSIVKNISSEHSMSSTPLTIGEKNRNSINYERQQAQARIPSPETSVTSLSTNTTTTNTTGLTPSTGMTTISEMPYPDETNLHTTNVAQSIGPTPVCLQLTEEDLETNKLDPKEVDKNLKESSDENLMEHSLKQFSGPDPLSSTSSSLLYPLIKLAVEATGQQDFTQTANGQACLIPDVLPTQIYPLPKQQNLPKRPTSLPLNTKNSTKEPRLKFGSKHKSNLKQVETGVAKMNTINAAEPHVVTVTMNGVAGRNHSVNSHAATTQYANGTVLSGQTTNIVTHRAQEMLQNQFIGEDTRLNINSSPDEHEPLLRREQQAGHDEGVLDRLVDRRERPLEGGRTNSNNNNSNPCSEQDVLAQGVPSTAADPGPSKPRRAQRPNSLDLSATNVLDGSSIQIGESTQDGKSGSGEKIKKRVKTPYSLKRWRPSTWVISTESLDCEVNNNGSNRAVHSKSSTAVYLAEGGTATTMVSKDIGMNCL
Description: as §2

[34] = target: T32, MARK3 (Homo sapiens, UniProt P27448); test: KINOMEscan scanEDGE; details: read-out: % Control (1µM)
T32 construct: purchased DiscoveRx KINOMEscan (scanEDGE); Thermo Fisher SelectScreen (Z'-LYTE) for PLK-1
T32 sequence (P27448 whole entry): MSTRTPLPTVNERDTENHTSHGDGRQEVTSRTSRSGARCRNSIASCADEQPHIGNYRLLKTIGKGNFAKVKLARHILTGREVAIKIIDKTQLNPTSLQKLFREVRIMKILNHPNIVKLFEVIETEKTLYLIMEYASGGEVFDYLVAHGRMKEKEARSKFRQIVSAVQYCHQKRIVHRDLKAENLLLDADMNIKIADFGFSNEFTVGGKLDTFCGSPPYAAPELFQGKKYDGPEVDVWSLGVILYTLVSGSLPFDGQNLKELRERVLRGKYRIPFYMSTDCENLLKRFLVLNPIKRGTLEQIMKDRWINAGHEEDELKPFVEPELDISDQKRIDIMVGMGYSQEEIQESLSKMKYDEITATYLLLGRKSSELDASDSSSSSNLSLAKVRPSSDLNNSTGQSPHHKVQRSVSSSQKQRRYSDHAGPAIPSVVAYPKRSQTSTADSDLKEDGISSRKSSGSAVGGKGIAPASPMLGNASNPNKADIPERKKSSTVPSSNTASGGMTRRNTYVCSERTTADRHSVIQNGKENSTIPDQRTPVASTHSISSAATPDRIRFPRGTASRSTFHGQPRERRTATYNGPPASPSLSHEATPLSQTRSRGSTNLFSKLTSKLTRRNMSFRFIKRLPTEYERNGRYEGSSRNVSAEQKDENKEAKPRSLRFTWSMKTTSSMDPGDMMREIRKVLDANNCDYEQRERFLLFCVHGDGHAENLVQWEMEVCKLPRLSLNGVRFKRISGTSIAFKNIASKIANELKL
Description: as §2

[35] = target: T33, SNARK (Homo sapiens, UniProt Q9H093); test: KINOMEscan scanEDGE; details: read-out: % Control (1µM)
T33 construct: purchased DiscoveRx KINOMEscan (scanEDGE); Thermo Fisher SelectScreen (Z'-LYTE) for PLK-1
Description: as §2

[36] = target: T34, PIM1 (Homo sapiens, UniProt P11309); test: KINOMEscan scanEDGE; details: read-out: % Control (1µM)
T34 construct: purchased DiscoveRx KINOMEscan (scanEDGE); Thermo Fisher SelectScreen (Z'-LYTE) for PLK-1
T34 sequence (P11309 whole entry): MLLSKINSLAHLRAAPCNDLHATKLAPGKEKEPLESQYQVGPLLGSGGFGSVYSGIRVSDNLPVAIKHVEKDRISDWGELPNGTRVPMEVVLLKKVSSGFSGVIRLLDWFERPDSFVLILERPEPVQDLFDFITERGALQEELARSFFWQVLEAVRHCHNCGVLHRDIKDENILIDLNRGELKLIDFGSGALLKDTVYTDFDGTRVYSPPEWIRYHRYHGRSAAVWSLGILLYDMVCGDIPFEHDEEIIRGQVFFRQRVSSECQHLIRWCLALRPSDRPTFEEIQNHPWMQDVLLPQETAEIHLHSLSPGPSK
Description: as §2

[37] = target: T35, SRPK3 (Homo sapiens, UniProt Q9UPE1); test: KINOMEscan scanEDGE; details: read-out: % Control (1µM)
T35 construct: purchased DiscoveRx KINOMEscan (scanEDGE); Thermo Fisher SelectScreen (Z'-LYTE) for PLK-1
Description: as §2

T1 sequence (P51531 1378-1506 limits assumed): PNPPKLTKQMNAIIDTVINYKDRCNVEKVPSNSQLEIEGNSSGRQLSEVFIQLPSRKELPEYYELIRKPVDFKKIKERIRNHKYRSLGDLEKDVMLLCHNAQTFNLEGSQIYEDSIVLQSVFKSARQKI

- Thermal Shift [1]: -2.4 K
- Thermal Shift [2]: 0.6 K
- Thermal Shift [3]: 4.4 K
- Thermal Shift [4]: 0.8 K
- Thermal Shift [5]: -0.7 K
- Thermal Shift [6]: -0.35 K
- Thermal Shift [7]: 3.95 K
- Thermal Shift [8]: 1.95 K
- Thermal Shift [9]: -1.65 K
- Thermal Shift [11]: -1 K
- Thermal Shift [12]: 0.35 K
- Thermal Shift [13]: -0.95 K
- Thermal Shift [14]: -0.45 K
- Thermal Shift [16]: 7.3 K
- Thermal Shift [17]: -3.4 K
- Thermal Shift [18]: 0.05 K
- Thermal Shift [19]: -2.75 K
- Thermal Shift [20]: -0.15 K
- Thermal Shift [21]: -0.1 K
- Thermal Shift [22]: 5.9 K
- Thermal Shift [23]: -2.9 K
- Thermal Shift [24]: 2.7 K
- Thermal Shift [25]: -1.05 K
- Thermal Shift [26]: -4.5 K
- remaining binding at 1 µM [27]: 71%
- remaining binding at 1 µM [28]: 96%
- remaining binding at 1 µM [29]: 100%
- remaining binding at 1 µM [30]: 100%
- remaining binding at 1 µM [31]: 96%
- remaining binding at 1 µM [32]: 100%
- remaining binding at 1 µM [33]: 100%
- remaining binding at 1 µM [34]: 100%
- remaining binding at 1 µM [35]: 100%
- remaining binding at 1 µM [36]: 97%
- remaining binding at 1 µM [37]: 100%
Structure (SMILES): CCOc1cc(C2CCN(C)CC2)ccc1Nc1ncc2c(n1)N(Cc1cc(C)cs1)[C@H](CC)C(=O)N2C [16k, (R)-2-((2-Ethoxy-4-(1-methylpiperidin-4-yl)phenyl)amino)-7-ethyl-5-methyl-8-((4-methylthiophen-2-yl)methyl)-7,8-dihydropteridin-6(5H)-one]
- Thermal Shift [10]: -1.2 K
- Thermal Shift [15]: -4.2 K

Source: article PMC6421522, “Designing Dual Inhibitors of Anaplastic Lymphoma Kinase (ALK) and Bromodomain-4 (BRD4) by Tuning Kinase Selectivity” (Journal of Medicinal Chemistry, 2019)
